The results in this text go back to patent publication US8697888B2, “Substituted (1-(methylsulfonyl)azetidin-3-yl)(heterocycloalkyl)methanone analogs as antagonists of muscarinic acetylcholine M1 receptors” (Vanderbilt University, priority 2012, dated 2014).

The IC50 is the point on the concentration scale where inhibition reaches its midpoint.

The target of this assay is T1, mAChR M1 (UniProt P11229).
T1 sequence (P11229 1-460): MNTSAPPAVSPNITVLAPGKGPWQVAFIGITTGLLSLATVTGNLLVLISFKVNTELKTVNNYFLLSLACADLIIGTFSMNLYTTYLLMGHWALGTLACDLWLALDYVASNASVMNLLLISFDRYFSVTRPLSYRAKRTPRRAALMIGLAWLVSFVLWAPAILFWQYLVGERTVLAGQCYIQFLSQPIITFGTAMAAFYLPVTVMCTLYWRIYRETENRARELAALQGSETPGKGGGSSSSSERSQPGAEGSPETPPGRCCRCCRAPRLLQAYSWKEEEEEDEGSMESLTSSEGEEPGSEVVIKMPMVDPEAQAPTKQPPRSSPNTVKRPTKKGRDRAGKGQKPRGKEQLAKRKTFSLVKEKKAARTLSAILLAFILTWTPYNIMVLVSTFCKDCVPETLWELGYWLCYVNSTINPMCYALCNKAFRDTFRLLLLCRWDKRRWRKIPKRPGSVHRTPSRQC
Description: mAChR M1 cell-based functional assay (calcium mobilization, antagonist mode). Particulars: for Remaining Activity (%): dash = baseline or about zero remaining activity (table footnote); for IC50: concentration of antagonist decreasing calcium flux by 50%, EC80 acetylcholine response, CHO-K1 cells expressing mAChR M1, read-out: Potency (IC50). The text has this:
Chinese hamster ovary (CHO-K1) cells stably expressing rat (r)M1 were purchased from the American Type Culture Collection and cultured according to their indicated protocol. CHO cells stably expressing human (h)M2, hM3, and hM5 were described previously (Levey, et al., 1991); hM1 and hM4 cDNAs were purchased from Missouri S&T cDNA Resource; rM4 cDNA was provided by T. I. Bonner (National Institutes of Health, Bethesda, Md.). rM2 and rM3 were cloned from a rat brain cDNA library and sequence verified. hM1, rM2, rM3, hM4, and rM4 cDNAs were used to stably transfect CHO-K1 cells purchased from the American Type Culture Collection using Lipofectamine-2000. To make stable rM2, hM2, rM3, hM4, and rM4 cell lines for use in calcium mobilization assays, these cells also were stably transfected with a chimeric G-protein (Gqi5) (provided by B. R. Conklin, University of California, San Francisco) using Lipofectamine 2000. rM1, hM1, rM3, hM3, rM5, and hM5 cells were grown in Ham's F-12 medium containing 10% heat-inactivated fetal bovine serum (FBS), 20 mM HEPES, and 50 μg/mL G418 sulfate. rM2-Gqi5, hM2-Gqi5, and hM4-Gqi5 cells were grown in the same medium also containing 500 μg/mL Hygromycin B. Stable rM4-Gqi5 cells were grown in DMEM containing 10% heat-inactivated FBS, 20 mM HEPES, 400 μg/mL G418 sulfate, and […].
For high throughput measurement of antagonist inhibited increases in intracellular calcium, CHO-K1 cells stably expressing muscarinic receptors were plated in growth medium lacking G418 and hygromycin at 15,000 cells/20 μL/well in Greiner 384-well black-walled, tissue culture (TC)-treated, clear-bottom plates (VWR). Cells were incubated overnight at 37° C. and 5% CO2. The next day, cells were washed using an ELX 405 (BioTek) with four washes (80 μL) of assay buffer then aspirated to 20 μL. Next, 20 μL of 16 μM Fluo-4/acetoxymethyl ester (Invitrogen, Carlsbad, Calif.) prepared as a 2.3 mM stock in DMSO and mixed in a 1:1 ratio with 10% (w/v) Pluronic F-127 and diluted in assay buffer was added to the wells and the cell plates were incubated for 50 min at 37° C. and 5% CO2. Dye was removed by washing with the ELX 405 (four 80 μL washes of assay buffer) then aspirated to 20 μL. Compound master plates were formatted in an 11 point CRC format (1:3 dilutions) in 100% DMSO with a starting concentration of 10 mM using the BRAVO liquid handler (Agilent). Test compound CRCs were then transferred to daughter plates (240 nL) using the Echo acoustic plate reformatter (Labcyte, Sunnyvale, Calif.) and then diluted into assay buffer (40 μL) to a 2× stock using a Thermo Fisher Combi (Thermo Fisher Scientific, Waltham, Mass.).
Calcium flux was measured using the Functional Drug Screening System (FDSS) 6000 (Hamamatsu Corporation, Tokyo, Japan) as an increase in the fluorescent static ratio. Compounds were applied to cells (20 μL, 2×) using the automated system of the FDSS 6000 at 4 s into the 300 s protocol and the data were collected at 1 Hz. At 144 s into the 300 s protocol, 10 μL of an EC20 concentration of the muscarinic receptor agonist acetylcholine was added (5×), followed by the addition of 12 μL an EC80 concentration of acetylcholine at the 230 s time point (5×). Agonist activity was analyzed as a concentration-dependent increase in calcium mobilization upon compound addition. Positive allosteric modulator activity was analyzed as a concentration-dependent increase in the EC20 acetylcholine response. Antagonist activity was analyzed as a concentration-dependent decrease in the EC80 acetylcholine response. Concentration-response curves were generated using a four-parameter logistical equation in XLfit curve fitting software (IDBS, Bridgewater, N.J.) for Excel (Microsoft, Redmond, Wash.) or Prism (GraphPad Software, Inc., San Diego, Calif.).
The calcium mobilization assay was used to determine “potency”.
(In general: A change in cytosolic calcium serves as a functional read-out for many receptors and channels.)

Turning to `O=C(C1CN(S(=O)(=O)c2cccc3cnccc23)C1)N1CCN(c2ccncc2)CC1` [B1], the “Remaining Activity (%)” value is recorded as “— (Unless otherwise indicated with a numerical value, the percent remaining activity is baseline or about zero, i.e. as indicated by “—”)”.

Take `O=C(C1CN(S(=O)(=O)c2cccc3cnccc23)C1)N1CCN(c2ccnc(Cl)c2)CC1` [B2]: the IC50 was determined as 48 nM and the “Remaining Activity (%)” value was “— (Unless otherwise indicated with a numerical value, the percent remaining activity is baseline or about zero, i.e. as indicated by “—”)”.

On to `O=C(C1CN(S(=O)(=O)c2cccc3cnccc23)C1)N1CC2CN(c3ccncc3)CC2C1` (stereo not drawn) [B3], for which the IC50 came out at 57 nM and the “Remaining Activity (%)” value is “— (Unless otherwise indicated with a numerical value, the percent remaining activity is baseline or about zero, i.e. as indicated by “—”)”.

On to `O=C(C1CN(S(=O)(=O)c2cccc3cnccc23)C1)N1CC2CN(c3ccccn3)CC2C1` (stereo not drawn) [B4], for which the IC50 was determined as 87 nM and the “Remaining Activity (%)” value is given as “— (Unless otherwise indicated with a numerical value, the percent remaining activity is baseline or about zero, i.e. as indicated by “—”)”.

With `O=C(C1CN(S(=O)(=O)c2ccc3c(c2)CCO3)C1)N1CCN(c2ccncc2)CC1` [B5], the IC50 was 95 nM and the “Remaining Activity (%)” value was “— (Unless otherwise indicated with a numerical value, the percent remaining activity is baseline or about zero, i.e. as indicated by “—”)”.

Regarding `Cc1cc(N2CCN(C(=O)C3CN(S(=O)(=O)c4cccc5cnccc45)C3)CC2)ccn1` [B6], the IC50 turned out to be 120 nM and the “Remaining Activity (%)” value is listed as “— (Unless otherwise indicated with a numerical value, the percent remaining activity is baseline or about zero, i.e. as indicated by “—”)”.

With `Cc1cc(S(=O)(=O)N2CC(C(=O)N3CCN(c4ccncc4)CC3)C2)cnc1Cl` [B7], the “Remaining Activity (%)” value is given as “— (Unless otherwise indicated with a numerical value, the percent remaining activity is baseline or about zero, i.e. as indicated by “—”)”.

As to `O=C(C1CN(S(=O)(=O)c2cccc3nonc23)C1)N1CCN(c2ccncc2)CC1` [B8], the IC50 turned out to be 290 nM and the “Remaining Activity (%)” value was “— (Unless otherwise indicated with a numerical value, the percent remaining activity is baseline or about zero, i.e. as indicated by “—”)”.

For `O=C(C1CN(S(=O)(=O)c2ccc3c(c2)OCO3)C1)N1CCN(c2ccncc2)CC1` [B9], the “Remaining Activity (%)” value is recorded as “— (Unless otherwise indicated with a numerical value, the percent remaining activity is baseline or about zero, i.e. as indicated by “—”)”.

`O=C(C1CN(S(=O)(=O)c2cccnc2)C1)N1CCN(c2ccncc2)CC1` [B10]: the IC50 came out at 350 nM and the “Remaining Activity (%)” value is listed as “— (Unless otherwise indicated with a numerical value, the percent remaining activity is baseline or about zero, i.e. as indicated by “—”)”.

With `O=C(C1CN(S(=O)(=O)c2cccc3nonc23)C1)N1CCN(c2ccc(Br)cn2)CC1` [B11], the IC50 is 350 nM and the “Remaining Activity (%)” value is “— (Unless otherwise indicated with a numerical value, the percent remaining activity is baseline or about zero, i.e. as indicated by “—”)”.

As to `O=C(C1CN(S(=O)(=O)c2ccc(Cl)nc2)C1)N1CCN(c2ccncc2)CC1` [B12], the IC50 turned out to be 350 nM and the “Remaining Activity (%)” value is “— (Unless otherwise indicated with a numerical value, the percent remaining activity is baseline or about zero, i.e. as indicated by “—”)”.

With `Cc1cnccc1N1CCN(C(=O)C2CN(S(=O)(=O)c3cccc4cnccc34)C2)CC1` [B13], the IC50 is 390 nM and the “Remaining Activity (%)” value is listed as “— (Unless otherwise indicated with a numerical value, the percent remaining activity is baseline or about zero, i.e. as indicated by “—”)”.

Take `Cc1cc(N2CCN(C(=O)C3CN(S(=O)(=O)c4cccc5cnccc45)C3)CC2)cc(C)n1` [B14]: the IC50 is 460 nM and the “Remaining Activity (%)” value is recorded as “— (Unless otherwise indicated with a numerical value, the percent remaining activity is baseline or about zero, i.e. as indicated by “—”)”.

`O=C(C1CN(S(=O)(=O)c2ccc3ncccc3c2)C1)N1CCN(c2ccncc2)CC1` [B15]: the “Remaining Activity (%)” value is “— (Unless otherwise indicated with a numerical value, the percent remaining activity is baseline or about zero, i.e. as indicated by “—”)”.

Take `O=C(C1CN(S(=O)(=O)c2cccc(Cl)c2Cl)C1)N1CCN(c2ccncc2)CC1` [B16]: the half-inhibitory concentration (IC50) turned out to be 620 nM and the “Remaining Activity (%)” value was “— (Unless otherwise indicated with a numerical value, the percent remaining activity is baseline or about zero, i.e. as indicated by “—”)”.

Turning to `O=C(C1CN(S(=O)(=O)c2cccc3c(Cl)nccc23)C1)N1CCN(c2ccncc2)CC1` [B17], the IC50 worked out at 640 nM and the “Remaining Activity (%)” value is “— (Unless otherwise indicated with a numerical value, the percent remaining activity is baseline or about zero, i.e. as indicated by “—”)”.

On to `Cn1cc(S(=O)(=O)N2CC(C(=O)N3CCN(c4ccncc4)CC3)C2)cn1` [B18], for which the IC50 was 740 nM and the “Remaining Activity (%)” value was “— (Unless otherwise indicated with a numerical value, the percent remaining activity is baseline or about zero, i.e. as indicated by “—”)”.

For `O=C(C1CN(S(=O)(=O)c2cccc3cnc(Cl)cc23)C1)N1CCN(c2ccncc2)CC1` [B19], the IC50 stood at 780 nM and the “Remaining Activity (%)” value is given as “— (Unless otherwise indicated with a numerical value, the percent remaining activity is baseline or about zero, i.e. as indicated by “—”)”.

As to `O=C(C1CN(S(=O)(=O)c2cccc3cnccc23)C1)N1CCN(c2ccncn2)CC1` [B20], the “Remaining Activity (%)” value is listed as “— (Unless otherwise indicated with a numerical value, the percent remaining activity is baseline or about zero, i.e. as indicated by “—”)”.

As to `O=C(C1CN(S(=O)(=O)c2cccnc2Cl)C1)N1CCN(c2ccncc2)CC1` [B21], the IC50 turned out to be 860 nM and the “Remaining Activity (%)” value is listed as “— (Unless otherwise indicated with a numerical value, the percent remaining activity is baseline or about zero, i.e. as indicated by “—”)”.

Consider `Cc1cc2c(S(=O)(=O)N3CC(C(=O)N4CCN(c5ccncc5)CC4)C3)cccc2cn1` [B22], for which the “Remaining Activity (%)” value was “— (Unless otherwise indicated with a numerical value, the percent remaining activity is baseline or about zero, i.e. as indicated by “—”)”.

Consider `O=C(C1CN(S(=O)(=O)c2cccc(F)c2)C1)N1CCN(c2ccncc2)CC1` [B23], for which the IC50 amounted to 1500 nM and the “Remaining Activity (%)” value is listed as “— (Unless otherwise indicated with a numerical value, the percent remaining activity is baseline or about zero, i.e. as indicated by “—”)”.

Regarding `O=C(C1CN(S(=O)(=O)c2ccc3occc3c2)C1)N1CCN(c2ccncc2)CC1` [B24], the half-maximal inhibitory concentration (IC50) worked out at 1500 nM and the “Remaining Activity (%)” value is “— (Unless otherwise indicated with a numerical value, the percent remaining activity is baseline or about zero, i.e. as indicated by “—”)”.
